Experimental findings from US20080242698A1, “Organic Compounds” (priority 2005, published 2008) are described below.

Each structure is given as a SMILES string.

A word on the melting point: it is the temperature, or range, at which the solid turns liquid. For `Cl.O=C(CNCC(c1ccccc1)c1ccccc1)N1CCc2ccccc2C1`, the melting point was in the range of 72 to 78 °C. Take `CC(C)N(C(=O)CNCC(c1ccccc1)c1ccccc1)c1ccccc1.Cl`: the melting point is 240 to 243 °C. For `CC(C)N(C(=O)CNCc1cccc2ccccc12)c1ccccc1.Cl`, the melting point fell in the range of 224 to 226 °C. With `CC(C)N(C(=O)CNCc1ccc(Cl)c(Cl)c1)c1ccccc1.Cl` the figure was 245 to 250 °C. With `CS(=O)(=O)O.CS(=O)(=O)O.Clc1ccc(C(NCCNC(c2ccccc2)c2ccc(Cl)cc2)c2ccccc2)cc1` (stereo not drawn), the melting point was 233 to 235 °C. With `Cl.O=C(CNCC(c1ccccc1)c1ccccc1)N1c2ccccc2Oc2ccccc21` the figure was 215 to 216 °C; with `Cl.O=C(CNCC(c1ccccc1)c1ccccc1)n1c2ccccc2c2ccccc21`, 250 °C; with `Cl.O=C(CNC(c1ccccc1)c1ccccc1)Nc1cccc2ccccc12`, 132 to 134 °C. With `Cl.O=C(CNC(c1ccccc1)c1ccccc1)Nc1ccccc1-c1ccccc1`, the melting point lay in the range of 151 to 158 °C. In turn, `Cl.O=C(CNCc1ccccc1Cl)N(c1ccccc1)c1ccccc1` showed a melting point of 213 to 214.5 °C. `Cl.O=C(CNCC(c1ccccc1)c1ccccc1)N(Cc1ccccc1)c1ccccc1` yielded a melting point of 188 to 190 °C.

`Cl.O=C(CNCc1ccccc1Cl)N(Cc1ccccc1)c1ccccc1` had a melting point of 190 to 192 °C.

With `Cl.O=C(CNC(c1ccccc1)c1ccccc1)N(Cc1ccccc1)c1ccccc1`, the melting point was 181 to 182 °C. With `Cl.O=C(CNC(c1ccccc1)c1ccccc1)N1CCCc2ccccc21` the figure was 191 to 194 °C; with `CC(C)N(C(=O)CNC(c1ccccc1)c1ccccc1)c1ccccc1.Cl`, 241 to 243 °C. As to `Cc1cccc2c1N(C(=O)CNCC(c1ccccc1)c1ccccc1)CCC2.Cl`, the melting point was in the range of 82 to 95 °C.

With `Cc1cccc2c1N(C(=O)CNC(c1ccccc1)c1ccccc1)CCC2.Cl`, the melting point was 128 to 136 °C. With `Cl.O=C(CNCC(c1ccccc1)c1ccccc1)N(c1ccccc1)c1ccccc1` the figure was 232 to 234 °C. As for `CC(CNCC(=O)N1CCCc2ccccc21)(c1ccccc1)c1ccccc1.Cl`, the melting point lay in the range of 210 to 212 °C. With `Cl.O=C(CN1CCc2ccccc2C1)N1CCCc2ccccc21` the figure was 201 to 203 °C; with `Cl.O=C(CNC1CCCc2ccccc21)N1c2ccccc2C=Cc2ccccc21` (stereo not drawn), 245 to 246 °C. With `Cl.O=C(CNCc1ccccc1)N(c1ccccc1)c1ccccc1` the figure was 234 to 237 °C; with `Cl.O=C(CNCc1cccc2ccccc12)N(c1ccccc1)c1ccccc1`, 233 to 235 °C. With `Cl.O=C(CNCCC(c1ccccc1)c1ccccc1)N(c1ccccc1)c1ccccc1` the figure was 227 to 230 °C; with `Cl.O=C(CNCc1ccc(Cl)c(Cl)c1)N1c2ccccc2C=Cc2ccccc21`, 244 to 249 °C.

Consider `Cl.O=C(CNCCc1ccccc1)N1c2ccccc2C=Cc2ccccc21`, for which the melting point lay in the range of 243 to 259 °C. With `Cl.O=C(CNCC(c1ccccc1)c1ccccc1)N1CCCc2ccccc21` the figure was 174 to 178 °C; with `CN(C(=O)CNCC(c1ccccc1)c1ccccc1)c1ccccc1.Cl`, 221 to 223 °C; with `Cl.O=C(CNC(c1ccccc1)c1ccccc1)NCCC(c1ccccc1)c1ccccc1`, 177.5 to 178.1 °C. The compound `Cl.O=C(CNC(c1ccccc1)c1ccccc1)NCc1ccccc1` displayed a melting point of 161.9 to 162.9 °C. With `Cl.O=C(CNC1CCc2ccccc2C1)N(c1ccccc1)c1ccccc1` (stereo not drawn) the figure was 274 to 295 °C. Turning to `Cl.NC(C(=O)NCC(=O)N(c1ccccc1)c1ccccc1)c1ccccc1` (stereo not drawn), the melting point was 177 to 185 °C (dec.). With `Cl.N[C@@H](C(=O)NCC(=O)N1c2ccccc2C=Cc2ccccc21)c1ccccc1` the figure was 179 to 185 °C; with `Cl.N[C@H](C(=O)NCC(=O)N1c2ccccc2C=Cc2ccccc21)c1ccccc1`, 192 to 233 °C. With `CN(C(=O)CNCc1ccc(Cl)c(Cl)c1)c1ccccc1.Cl` the figure was 221 to 224 °C. With `COc1ccc(CNC(C(=O)NCc2ccccc2)c2ccccc2)cc1.O=C(O)/C=C/C(=O)O` (racemic) the figure was 153 to 155 °C. As to `CN(C)c1ccc(CNC(C(=O)NCc2ccccc2)c2ccccc2)cc1.O=C(O)/C=C/C(=O)O` (racemic), the melting point lay within 159 to 161 °C. As for `Cl.O=C(NCc1ccccc1)C(NC(c1ccccc1)c1ccccc1)c1ccccc1` (racemic), the melting point is 218.4 to 219.2 °C (dec.). With `Cl.O=C(NCc1cccc(Cl)c1)C(NC(c1ccccc1)c1ccccc1)c1ccccc1` (racemic) the figure was 215 to 216 °C; with `CC(CN(C)C)N1c2ccccc2CCc2ccccc21.Cl` (racemic), 172 to 173 °C. Compound `CC1CCc2ccccc2N1C(=O)CNCC(c1ccccc1)c1ccccc1.Cl` (racemic) had a melting point of 212 to 215 °C.

In turn, `CC(NCC(=O)N(c1ccccc1)c1ccccc1)c1ccccc1.Cl` (racemic) showed a melting point of 232 to 236 °C.

In turn, `CC(NCC(c1ccccc1)c1ccccc1)C(=O)N(c1ccccc1)c1ccccc1.Cl` (racemic) registered a melting point of 122 to 125 °C.

In turn, `CC(NC1Cc2ccccc2C1)C(=O)N(c1ccccc1)c1ccccc1.Cl` (racemic) returned a melting point of 208 to 210 °C. With `CC(NC(c1ccccc1)c1ccccc1)C(=O)NCCC(c1ccccc1)c1ccccc1.Cl` (racemic) the figure was 210.3 to 212 °C; with `O=C(NCc1ccccc1)C(c1ccccc1)N(Cc1ccccc1)Cc1ccccc1` (racemic) [Example 106, rac-N-Benzyl-2-dibenzylamino-2-phenyl-acetamide], 109 to 119.5 °C; with `COc1cc(CNC(C(=O)NCc2ccccc2)c2ccccc2)cc(OC)c1` (racemic) [Example 112, rac-N-Benzyl-2-(3,5-dimethoxy-benzylamino)-2-phenyl-acetamide], 107 to 108 °C. With `O=C(NCC(c1ccccc1)c1ccccc1)C(Cc1ccccc1)NCc1ccccn1` (racemic) [Example 136, rac-N-(2,2-Diphenyl-ethyl)-3-phenyl-2-[(pyridin-2-ylmethyl)-amino]-propion-amide] the figure was 68 to 70 °C; with `O=C(CNCc1ccccc1Cl)NC(c1ccccc1)c1ccccc1` [Example 5, N-Benzhydryl-2-(2-chloro-benzylamino)-acetamide], 98 to 99 °C. With `O=C(CN1CCc2ccccc2C1)N(c1ccccc1)c1ccccc1` [Example 14, 2-(3,4-Dihydro-1H-isoquinolin-2-yl)-N,N-diphenyl-acetamide] the figure was 202 to 204 °C. Regarding `O=C(CNC(c1ccccc1)c1ccccc1)N(c1ccccc1)c1ccccc1` [Example 15, 2-(Benzhydryl-amino)-N,N-diphenyl-acetamide], the melting point was in the range of 122 to 123 °C. With `CN(C(=O)CNC(c1ccccc1)c1ccccc1)c1ccccc1` [Example 24, 2-(Benzhydryl-amino)-N-methyl-N-phenyl-acetamide] the figure was 115 to 116 °C; with `O=C(CNC1c2ccccc2-c2ccccc21)N1CCCc2ccccc21` [Example 31, 1-(3,4-Dihydro-2H-quinolin-1-yl)-2-(9H-fluoren-9-ylamino)-ethanone], 82 to 84 °C. With `O=C(NC(C(=O)NCc1ccccc1)c1ccccc1)c1ccc2cc(C(=O)O)[nH]c2c1` (stereo not drawn) [Example 117, 6-[(Benzylcarbamoyl-phenyl-methyl)-carbamoyl]-1H-indole-2-carboxylic acid] the figure was 258 to 260 °C.
